These results are taken from patent publication US20050261282A1, “Treatment of basal ganglia-related movement disorders with 2,3-benzodiazepines” (Motac Neuroscience Limited Williams House, priority 2002, published 2005).

Structures can show the parent of a compound that is named as a salt.

For series [1] the following is noted: cited from earlier work.
In series [2] the test system is MPTP-lesioned marmoset. The experiment in a line: L-DOPA-induced dyskinesia score in the MPTP-lesioned marmoset model of Parkinson's disease. The format is in vivo, Marmosets (Callithrix jacchus). The following applies: Tofisopam 5-20 mg/kg oral with L-DOPA 15-17.5 mg/kg oral; dyskinesia score 0-4, every 30 minutes for 4 hours; FIGS. 4 and 5. The protocol:
The effect of Tofisopam on L-DOPA-induced dyskinesia was assessed in the MPTP-lesioned marmoset model of Parkinson's disease. 1.1.1 Preparation of MPTP-lesioned marmoset model of Parkinson's disease Marmosets (Callithrix jacchus) (bred in a closed colony at the University of Manchester) were rendered parkinsonian by subcutaneous injection of 2 mg kgl MPTP for 5 consecutive days. The marmosets were allowed to recover for a minimum of 10 weeks until their parkinsonism became stable. The degree of activity and disability before and after MPTP treatment was assessed using a combination of scales as described in section 1.1.2. Animals were then treated with L-DOPA for at least 3 weeks to prime them to elicit dyskinesia. (c) Dyskinesia—non-parametric measures based on the following scale: Dyskinesia score: 0=Absent, 1=Mild, fleeting, 2=Moderate, not interfering with normal activity, 3=Marked, at times interfering with normal activity, 4=Severe, continuous, replacing normal activity. The behavioural tests were assessed every 30 minutes for 4 hours, by post hoc analysis of video-recordings by an observer blinded to the treatment. Marmosets received all treatments as described in Table 1. The treatments were randomised such that on each day all marmosets received one of the treatments. There was at least 48 hours washout between treatments. [table]

In series [3] the test system is MPTP-lesioned marmoset. The experiment in a line: Parkinsonian disability (mobility score) in the MPTP-lesioned marmoset model of Parkinson's disease. Format: in vivo, Marmosets (Callithrix jacchus). The following applies: Tofisopam 5-20 mg/kg oral with L-DOPA 15-17.5 mg/kg oral; mobility score 0-9, every 30 minutes for 4 hours; FIGS. 4 and 5. The protocol: The effect of Tofisopam on L-DOPA-induced dyskinesia was assessed in the MPTP-lesioned marmoset model of Parkinson's disease. 1.1.1 Preparation of MPTP-lesioned marmoset model of Parkinson's disease Marmosets (Callithrix jacchus) (bred in a closed colony at the University of Manchester) were rendered parkinsonian by subcutaneous injection of 2 mg kgl MPTP for 5 consecutive days. The marmosets were allowed to recover for a minimum of 10 weeks until their parkinsonism became stable. The degree of activity and disability before and after MPTP treatment was assessed using a combination of scales as described in section 1.1.2. Animals were then treated with L-DOPA for at least 3 weeks to prime them to elicit dyskinesia. […] The behavioural tests were assessed every 30 minutes for 4 hours, by post hoc analysis of video-recordings by an observer blinded to the treatment. […]

As for `CCN(CC)CCNC(=O)c1cc(Cl)c(N)cc1OC` [Metoclopramide hydrochloride, 4-amino-5-chloro-N-[2-(diethylamino)ethyl]-2-methoxy benzamide monohydrochloride monohydrate], the solubility in water entry in series [1] is reported as “freely soluble in water”.
Regarding `CCC1C(C)=NN=C(c2ccc(OC)c(OC)c2)c2cc(OC)c(OC)cc21` (centres unmarked) [Tofisopam], in the series on MPTP-lesioned marmoset [2], the “severity of L-DOPA-induced dyskinesia” value is reported as “reduces the severity of L-DOPA-induced dyskinesia”. Also, in the series on MPTP-lesioned marmoset [3], the “antiparkinsonian action of L-DOPA (parkinsonian disability)” value is given as “without affecting the antiparkinsonian action”.
As for `N[C@@H](Cc1ccc(O)c(O)c1)C(=O)O` [levodopa, (−)-3-(3,4-dihydroxy-phenyl)-L-alanine], the solubility in alcohol entry in series [1] (alcohol) was “insoluble in alcohol”. In addition, the solubility in water entry in series [1] is recorded as “slightly soluble in water”.
